In brackets after ≈: the same amount, converted by molar mass. Read-outs that look alike come from different tables or passages of the source. One block for each compound: values may come before it.
Assays:
[1] = Metabolic stability in human liver microsomes (HLM); type: in vitro ADME; details: n = 1 or average of n = 2-3
Procedure: Metabolic stability in HLM was measured as described in J Comput Aided Mol Des 2015, 29, 795.

Rat Hepatocytes (rHep) = assay: Metabolic stability in rat hepatocytes (rHep); type: in vitro ADME; details: n = 1 or geometric mean of n = 2-3
Caco-2 cell permeability = type: in vitro ADME; details: human
Procedure: (§1) Caco-2 cell permeability was measured as described in Mol Pharm 2017, 14, 1601.

Kinetic solubility = type: physicochemical; details: kinetic from dmso stock
Procedure: Kinetic solubility was measured as described in Comput Aided Mol Des 2015, 29, 795.

Caco-2 cell = Caco-2 cell permeability; type: in vitro ADME; details: bidirectional (ABBA); for Caco2 Bidirectional (ABBA) A to B Papp / Caco2 Bidirectional (ABBA) B to A Papp: n = 1 or average of n = 2-4
Procedure: as §1

FAP = FAP (Macaca fascicularis, UniProt A0A2K5VGH4); assay: FAP plasma inhibition assay, cynomolgus plasma; type: biochemical; details: cynomolgus plasma diluted 1:40, 75 μM Ala-Pro-AMC; n = 1; read-out: FAP Cyno Plasma IC50
Procedure: D. FAP Plasma Inhibition Assay This assay was adapted from the method described in Example 237 for detection of FAP target engagement enzyme activity in plasma. […] Compounds were tested using 10 CR, 3 fold dilution series from 500 nM FAC. Two replicates for each assay point were run on the same plate. A fluorescence blank read was taken before substrate addition. […] Plates were incubated for 40 min at rt in the dark. […] IC50 values were determined by plotting % inhibition versus log compound concentration.

[2] = Caco-2, AB intrinsic, n = 1 or average of n = 2-4, read-out: Caco2 AB Intrinsic Papp

Chain of FAP (A0A2K5VGH4 entry or part of it): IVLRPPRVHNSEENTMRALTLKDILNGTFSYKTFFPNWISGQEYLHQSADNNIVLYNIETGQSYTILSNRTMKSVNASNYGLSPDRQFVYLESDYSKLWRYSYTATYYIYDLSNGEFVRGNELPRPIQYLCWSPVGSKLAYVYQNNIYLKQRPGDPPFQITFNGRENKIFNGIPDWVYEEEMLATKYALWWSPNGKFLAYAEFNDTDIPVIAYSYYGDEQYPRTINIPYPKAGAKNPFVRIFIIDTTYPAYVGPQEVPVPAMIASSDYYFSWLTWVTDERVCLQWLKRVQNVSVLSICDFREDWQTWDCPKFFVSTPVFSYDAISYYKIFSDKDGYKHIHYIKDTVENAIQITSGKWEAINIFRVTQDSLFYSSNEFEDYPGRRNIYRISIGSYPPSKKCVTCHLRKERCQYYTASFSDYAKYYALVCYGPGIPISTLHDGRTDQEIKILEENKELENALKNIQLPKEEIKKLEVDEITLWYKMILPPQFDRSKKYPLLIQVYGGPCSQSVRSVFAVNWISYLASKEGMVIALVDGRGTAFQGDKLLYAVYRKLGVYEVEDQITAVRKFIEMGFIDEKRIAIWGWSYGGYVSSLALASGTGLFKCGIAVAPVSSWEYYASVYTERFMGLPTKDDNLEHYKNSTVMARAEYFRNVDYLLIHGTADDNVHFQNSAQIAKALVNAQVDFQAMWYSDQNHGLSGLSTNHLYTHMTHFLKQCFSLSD

Structure (SMILES): CC1(F)CCN(c2ccc3nccc(C(=O)NCC(=O)N4CSC[C@H]4C#N)c3c2)C1 (mixture of isomers) [Example 198, N-(2-((R)-4-Cyanothiazolidin-3-yl)-2-oxoethyl)-6-((RS)-3-fluoro-3-methylpyrrolidin-1-yl)quinoline-4-carboxamide]
microsomal CLint [1]: 20 µL/min/mg | rHep CLint (Rat Hepatocytes (rHep)): 22 μL/min/1E6

Structure (SMILES): N#C[C@@H]1CSCN1C(=O)CNC(=O)c1ccnc2ccc(N3CCOCC3C(F)(F)F)cc12 (single isomer, unassigned) [Example 84, N-(2-((R)-4-Cyanothiazolidin-3-yl)-2-oxoethyl)-6-((R*)-3-(trifluoromethyl)-morpholino)quinoline-4-carboxamide]
rHep CLint (Rat Hepatocytes (rHep)): 26 μL/min/1E6

Structure (SMILES): N#C[C@@H]1CSCN1C(=O)CNC(=O)c1ccnc2ccc(N3CCOCC3C(F)(F)F)cc12 (single isomer, unassigned) [Example 85, N-(2-((R)-4-Cyanothiazolidin-3-yl)-2-oxoethyl)-6-((R*)-3-(trifluoromethyl)-morpholino)quinoline-4-carboxamide]
rHep CLint (Rat Hepatocytes (rHep)): 35 μL/min/1E6 | solubility (Kinetic solubility): 800 µM (≈ 384 µg/mL)

Structure (SMILES): N#C[C@@H]1CSCN1C(=O)CNC(=O)c1ccnc2ccc(N3CCCC3C3CC3)cc12 (single isomer, unassigned) [Example 200, N-(2-((R)-4-Cyanothiazolidin-3-yl)-2-oxoethyl)-6-((R*)-2-cyclopropyl-pyrrolidin-1-yl)quinoline-4-carboxamide]
HLM CLint [1]: >300 µL/min/mg | rHep CLint (Rat Hepatocytes (rHep)): >300 μL/min/1E6

Structure (SMILES): CC1CCN(c2ccc3nccc(C(=O)NCC(=O)N4CSC[C@H]4C#N)c3c2)C1=O (single isomer, unassigned) [Example 201, N-(2-((R)-4-Cyanothiazolidin-3-yl)-2-oxoethyl)-6-((R*)-3-methyl-2-oxopyrrolidin-1-yl)quinoline-4-carboxamide]
microsomal CLint [1]: < 3 µL/min/mg | rHep CLint (Rat Hepatocytes (rHep)): <1 μL/min/1E6 | Papp A→B (Caco-2 cell permeability; [2]): 4.8 ×10⁻⁶ cm/s | solubility (Kinetic solubility): 90 µM (≈ 38.1 µg/mL)

Structure (SMILES): CC1CCN(c2ccc3nccc(C(=O)NCC(=O)N4CSC[C@H]4C#N)c3c2)C1=O (single isomer, unassigned) [Example 202, N-(2-((R)-4-Cyanothiazolidin-3-yl)-2-oxoethyl)-6-((R*)-3-methyl-2-oxopyrrolidin-1-yl)quinoline-4-carboxamide]
rHep CLint (Rat Hepatocytes (rHep)): <1 μL/min/1E6

Structure (SMILES): CC1CCCN(c2ccc3nccc(C(=O)NCC(=O)N4CSC[C@H]4C#N)c3c2)C1=O (single isomer, unassigned) [Example 203, N-(2-((R)-4-Cyanothiazolidin-3-yl)-2-oxoethyl)-6-((R*)-3-methyl-2-oxopiperidin-1-yl)quinoline-4-carboxamide]
rHep CLint (Rat Hepatocytes (rHep)): 2.9 μL/min/1E6 | Papp A→B (Caco-2 cell permeability; Caco-2, bidirectional (ABBA), A to B, n = 1 or average of n = 2-4, read-out: Caco2 Bidirectional (ABBA) A to B Papp): 0.4 ×10⁻⁶ cm/s | Papp B→A (Caco-2 cell permeability; Caco-2, bidirectional (ABBA), B to A, n = 1 or average of n = 2-4, read-out: Caco2 Bidirectional (ABBA) B to A Papp): 8 ×10⁻⁶ cm/s | efflux ratio (Caco-2 cell permeability; Caco-2, bidirectional (ABBA), read-out: Caco2 Bidirectional (ABBA) Efflux Ratio): 20

Structure (SMILES): N#C[C@@H]1CSCN1C(=O)CNC(=O)c1ccnc2ccc(N3C[C@@H](F)[C@H](F)C3)cc12 (single isomer, unassigned) [Example 214]
microsomal CLint [1]: 27 µL/min/mg | solubility (Kinetic solubility): 230 µM (≈ 99.2 µg/mL)

Structure (SMILES): N#C[C@@H]1CSCN1C(=O)CNC(=O)c1ccnc2ccc(N3CC4(CCC4)C3)cc12 [Example 17, (R)—N-(2-(4-Cyanothiazolidin-3-yl)-2-oxoethyl)-6-(2-azaspiro[3.3]heptan-2-yl)quinoline-4-carboxamide]
microsomal CLint [1]: 48 µL/min/mg

Structure (SMILES): CC1(C)COC12CN(c1ccc3nccc(C(=O)NCC(=O)N4CSC[C@H]4C#N)c3c1)C2 [Example 18, (R)—N-(2-(4-Cyanothiazolidin-3-yl)-2-oxoethyl)-6-(3,3-dimethyl-1-oxa-6-azaspiro[3.3]heptan-6-yl)quinoline-4-carboxamide]
Papp A→B (Caco-2 cell permeability; [2]): 13 ×10⁻⁶ cm/s | Caco2 Bidirectional (ABBA) Efflux Ratio (Caco-2 cell): 34 | Caco2 Bidirectional (ABBA) A to B Papp (Caco-2 cell): 0.90 1E−6 · cm/s | Caco2 Bidirectional (ABBA) B to A Papp (Caco-2 cell): 31 1E−6 · cm/s

Structure (SMILES): COC1(C)CCN(c2ccc3nccc(C(=O)NCC(=O)N4CSC[C@H]4C#N)c3c2)CC1 [Example 42, (R)—N-(2-(4-Cyanothiazolidin-3-yl)-2-oxoethyl)-6-(4-methoxy-4-methylpiperidin-1-yl)quinoline-4-carboxamide]
solubility (Kinetic solubility): 850 µM (≈ 386 µg/mL)

Structure (SMILES): N#C[C@@H]1CSCN1C(=O)CNC(=O)c1ccnc2ccc(N3CCOC4(CCOCC4)C3)cc12 [Example 99, (R)—N-(2-(4-cyanothiazolidin-3-yl)-2-oxoethyl)-6-(1,9-dioxa-4-azaspiro[5.5]undecan-4-yl)quinoline-4-carboxamide]
Caco2 Bidirectional (ABBA) Efflux Ratio (Caco-2 cell): 46 | Caco2 Bidirectional (ABBA) A to B Papp (Caco-2 cell): 0.46 1E−6 · cm/s | Caco2 Bidirectional (ABBA) B to A Papp (Caco-2 cell): 21 1E−6 · cm/s

Structure (SMILES): N#C[C@@H]1CSCN1C(=O)CNC(=O)c1ccnc2ccc(N3CC4(CC(F)C4)C3)cc12 [Example 155, (R)—N-(2-(4-Cyanothiazolidin-3-yl)-2-oxoethyl)-6-(6-fluoro-2-azaspiro[3.3]heptan-2-yl)quinoline-4-carboxamide]
Caco2 Bidirectional (ABBA) Efflux Ratio (Caco-2 cell): 6.5 | Caco2 Bidirectional (ABBA) A to B Papp (Caco-2 cell): 4.2 1E−6 · cm/s | Caco2 Bidirectional (ABBA) B to A Papp (Caco-2 cell): 27 1E−6 · cm/s

Structure (SMILES): N#C[C@@H]1CSCN1C(=O)CNC(=O)c1ccnc2ccc(N3CC4(COC4)C3)cc12 [Example 166, (R)—N-(2-(4-Cyanothiazolidin-3-yl)-2-oxoethyl)-6-(2-oxa-6-azaspiro[3.3]heptan-6-yl)quinoline-4-carboxamide]
IC50 (FAP): 0.3 nM | Papp A→B (Caco-2 cell permeability; [2]): 2 ×10⁻⁶ cm/s | Caco2 Bidirectional (ABBA) Efflux Ratio (Caco-2 cell): 24 | Caco2 Bidirectional (ABBA) A to B Papp (Caco-2 cell): 0.56 1E−6 · cm/s | Caco2 Bidirectional (ABBA) B to A Papp (Caco-2 cell): 13 1E−6 · cm/s

Continued, values first:

microsomal CLint [1]: 30 µL/min/mg | rHep CLint (Rat Hepatocytes (rHep)): 12 μL/min/1E6 | Papp A→B (Caco-2 cell permeability; [2]): 16 ×10⁻⁶ cm/s
Structure (SMILES): COC1CCCN(c2ccc3nccc(C(=O)NCC(=O)N4CSC[C@H]4C#N)c3c2)C1 (mixture of isomers) [Example 41, N-(2-((R)-4-Cyanothiazolidin-3-yl)-2-oxoethyl)-6-((RS)-3-methoxypiperidin-1-yl)quinoline-4-carboxamide]

rHep CLint (Rat Hepatocytes (rHep)): 160 μL/min/1E6
Structure (SMILES): CC1CC(F)(F)CCN1c1ccc2nccc(C(=O)NCC(=O)N3CSC[C@H]3C#N)c2c1 (mixture of isomers) [Example 44, N-(2-((R)-4-Cyanothiazolidin-3-yl)-2-oxoethyl)-6-((RS)-4,4-difluoro-2-methylpiperidin-1-yl)quinoline-4-carboxamide]

rHep CLint (Rat Hepatocytes (rHep)): 47 μL/min/1E6
Structure (SMILES): CC1N(c2ccc3nccc(C(=O)NCC(=O)N4CSC[C@H]4C#N)c3c2)CC1(F)F (mixture of isomers) [Example 159, N-(2-((R)-4-Cyanothiazolidin-3-yl)-2-oxoethyl)-6-((RS)-3,3-difluoro-2-methylazetidin-1-yl)quinoline-4-carboxamide]

rHep CLint (Rat Hepatocytes (rHep)): 15 μL/min/1E6 | solubility (Kinetic solubility): 800 µM (≈ 381 µg/mL)
Structure (SMILES): N#C[C@@H]1CSCN1C(=O)CNC(=O)c1ccnc2ccc(-c3ccnn3C3CCCCO3)cc12 (mixture of isomers) [Example 176]

microsomal CLint [1]: < 3 µL/min/mg | rHep CLint (Rat Hepatocytes (rHep)): <1 μL/min/1E6 | Papp A→B (Caco-2 cell permeability; [2]): 1.2 ×10⁻⁶ cm/s | solubility (Kinetic solubility): 50 µM (≈ 22.4 µg/mL)
Structure (SMILES): N#C[C@@H]1CSCN1C(=O)CNC(=O)c1ccnc2ccc(N3CC(O)C(F)(F)C3)cc12 (mixture of isomers) [Example 224, N-(2-((R)-4-Cyanothiazolidin-3-yl)-2-oxoethyl)-6-((RS)-3,3-difluoro-4-hydroxypyrrolidin-1-yl)quinoline-4-carboxamide]

microsomal CLint [1]: > 300 µL/min/mg | rHep CLint (Rat Hepatocytes (rHep)): 250 μL/min/1E6
Structure (SMILES): N#C[C@@H]1CSCN1C(=O)CNC(=O)c1ccnc2ccc(N3CCCC3C3CC3)cc12 (single isomer, unassigned) [Example 199, N-(2-((R)-4-Cyanothiazolidin-3-yl)-2-oxoethyl)-6-((R*)-2-cyclopropyl-pyrrolidin-1-yl)quinoline-4-carboxamide]

microsomal CLint [1]: 8 µL/min/mg | rHep CLint (Rat Hepatocytes (rHep)): 1.8 μL/min/1E6
Structure (SMILES): CC1CCCN(c2ccc3nccc(C(=O)NCC(=O)N4CSC[C@H]4C#N)c3c2)C1=O (single isomer, unassigned) [Example 204, N-(2-((R)-4-Cyanothiazolidin-3-yl)-2-oxoethyl)-6-((R*)-3-methyl-2-oxopiperidin-1-yl)quinoline-4-carboxamide]

From patent publication US20240101549A1, “N-(2-(4-CYANOTHIAZOLIDIN-3-YL)-2-OXOETHYL)-QUINOLINE-4-CARBOXAMIDES” (AstraZeneca AB, priority 2020, published 2024)
